Measured values: PubChem BioAssay AID2060499 (Molecular Pharmacology Branch, DTP, NCI, 2025)

Tested on: 777334-354-R2-J4-PDC tumor spheroids with HUVEC/MSC, viability
Experiment: Anticancer human tumor 777334-354-R2-J4-PDC patient-derived pancreatic adenocarcinoma cell line growth inhibition [GQUAD]
Conditions: for IC50: curve of first compound; for viability, T/C: stronger effect = lower value
Source text: DNA G-quadruplex Stabilizer Agents in Combinations in Complex Spheroids
A high-throughput screen of multi-cell type tumor spheroids was designed to identify active combinations of DNA G-quadruplex stabilizer agents and targeted small molecules. Complex spheroids include a stromal component modeled by human endothelial cells (HUVEC) and fibroblasts modeled by human mesenchymal stem cells (MSCs). The concentration ranges selected for each drug and investigational agent were based upon clinically achievable concentrations if the clinical Cmax of the agent was known.
Compounds. The drugs and investigational agents: pidnarulex (CX-5461; NSC782164), APTO-253 (NSC789042), BRACO-19 (NSC847499), peposertib (NSC802822), ceralasertib (NSC780249), elimusertib (NSC800525), camonsertib (NSC841442), AZD-1390 (NSC803789), olaparib (NSC753686), talazoparib (NSC767125), ART-558 (NSC835418), sotorasib (NSC818433), MRTX-1133 (NSC836407), SN-38 (NSC673596), topotecan (NSC609699), etoposide (NSC141540), doxorubicin (NSC123127), gemcitabine (NSC613327), 5-fluorouracil (NSC19893), paclitaxel (NSC125973), vemurafenib (NSC761431), panobinostat (NSC761190), R-306465 (JNJ-16241199; NSC773264), adavosertib (NSC754352), TP-3654 (NSC805149), carboplatin (NSC241240), KSQ-4279 (NSC840948), and staurosporine (NSC755774) were obtained from the National Cancer Institute (NCI) Developmental Therapeutics Program Chemical Repository (34). The FDA-approved anticancer drug set is available from the NCI Developmental Therapeutics Program. […] The stock solutions were prepared in dimethyl sulfoxide (DMSO, Sigma-Aldrich, St. Louis, MO, cat. D2650) at 800-fold the tested concentration and stored at -70 degrees C prior to their use. All drugs and investigational agents were tested over a range starting from a high concentration at or near the clinical Cmax and decreasing in half-log increments. If the clinical Cmax for an agent had not been determined, the highest concentration tested was 10 microM.
2.3 Cell Culture. All cells were maintained in an incubator at 37 degrees C and 5% CO2 with 95% humidity. The PDC lines were cultured according to standard operating procedures established by the NCI PDMR. All PDCs were thawed and cultured in Matrigel-coated flasks prepared with a working solution of 1X Ham's F-12 nutrient mix, without supplementation (Invitrogen, cat. 11765054), 100 U/mL penicillin-streptomycin (Invitrogen, cat. 15140122), and 2.5% Matrigel (Corning Inc., cat. 354248) for the first three passages. The 857933-349-R-J2-PDC line was cultured in 6C/Colon 1B media, which includes advanced DMEM/F-12 (Thermo Fisher Scientific, cat. 12634028), 10 mM HEPES (Thermo Fisher Scientific, cat. 15630080), 1X GlutaMAX supplement (Thermo Fisher Scientific, cat. 35050061), 0.1 mg/mL primocin (InvivoGen, cat. ant-pm-2), 10% defined fetal bovine serum, heat inactivated (HyClone Laboratories Inc., cat. SH30070.03HI), 50% L-WRN conditioned media (ATCC, cat. CRL-3276), 1.25 mM N-Acetyl-L-cysteine (Sigma-Aldrich, cat. A9165), 10 mM nicotinamide (Sigma-Aldrich, cat. N0636), 1X B-27 supplement (Thermo Fisher Scientific, cat. 17504044), 1X N-2 supplement (Thermo Fisher Scientific, cat. 17502048), 10 microM Y-27632 dihydrochloride (Tocris Bioscience, cat. 1254), and 50 ng/mL human EGF recombinant protein (Thermo Fisher Scientific, cat. PHG0311). The 485176-168-R4-J1-PDC line was cultured in Panc media, which includes all 6C/Colon 1B media components plus 100 ng/mL human FGF-10 (Thermo Fisher Scientific, cat. 100-26), 500 nM SB-431542 (Selleckchem, cat. S1067), and gastrin (Tocris, cat. 3006).
[…]

[1] = second compound 0.0316 µM, first compound 0.0316 µM
[2] = second compound 0.0316 µM, first compound 0.1 µM
[3] = second compound 0.0316 µM, first compound 0.316 µM
[4] = second compound 0.0316 µM, first compound 1 µM
[5] = second compound 0.0316 µM, first compound 3.16 µM
[6] = second compound 0.0316 µM, first compound 10 µM
[7] = second compound 0.1 µM, first compound 0.0316 µM
[8] = second compound 0.1 µM, first compound 0.1 µM
[9] = second compound 0.1 µM, first compound 0.316 µM
[10] = second compound 0.1 µM, first compound 1 µM
[11] = second compound 0.1 µM, first compound 3.16 µM
[12] = second compound 0.1 µM, first compound 10 µM
[13] = second compound 0.316 µM, first compound 0.0316 µM
[14] = second compound 0.316 µM, first compound 0.1 µM
[15] = second compound 0.316 µM, first compound 0.316 µM
[16] = second compound 0.316 µM, first compound 1 µM
[17] = second compound 0.316 µM, first compound 3.16 µM
[18] = second compound 0.316 µM, first compound 10 µM
[19] = second compound 1 µM, first compound 0.0316 µM
[20] = second compound 1 µM, first compound 0.1 µM
[21] = second compound 1 µM, first compound 0.316 µM
[22] = second compound 1 µM, first compound 1 µM
[23] = second compound 1 µM, first compound 3.16 µM
[24] = second compound 1 µM, first compound 10 µM
[25] = second compound 3.16 µM, first compound 0.0316 µM
[26] = second compound 3.16 µM, first compound 0.1 µM
[27] = second compound 3.16 µM, first compound 0.316 µM
[28] = second compound 3.16 µM, first compound 1 µM
[29] = second compound 3.16 µM, first compound 3.16 µM
[30] = second compound 3.16 µM, first compound 10 µM
[31] = second compound 10 µM, first compound 0.0316 µM
[32] = second compound 10 µM, first compound 0.1 µM
[33] = second compound 10 µM, first compound 0.316 µM
[34] = second compound 10 µM, first compound 1 µM
[35] = second compound 10 µM, first compound 3.16 µM
[36] = second compound 10 µM, first compound 10 µM
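Note: spheroids exposed to compounds for 7 days before readout.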

COc1cc(C2c3cc4c(cc3C(OC3OC5COC(C)OC5C(O)C3O)C3COC(=O)C23)OCO4)cc(OC)c1O (centres undefined) + Cc1[nH]c2ccc(F)cc2c1-c1nc2c3cccnc3c3ncccc3c2[nH]1
IC50 (second compound 0.0316 µM): 6.31 µM
IC50 (second compound 0.1 µM): 7.25 µM
IC50 (second compound 0.316 µM): 5.37 µM
IC50 (second compound 1 µM): 3.27 µM
IC50 (second compound 3.16 µM): < 0.0316 µM
IC50 (second compound 10 µM): < 0.0316 µM
viability, T/C [1]: 95.9%
viability, T/C [2]: 91%
viability, T/C [3]: 90.1%
viability, T/C [4]: 71.4%
viability, T/C [5]: 64.4%
viability, T/C [6]: 41.5%
viability, T/C [7]: 104%
viability, T/C [8]: 91.7%
viability, T/C [9]: 90.2%
viability, T/C [10]: 72.1%
viability, T/C [11]: 63.4%
viability, T/C [12]: 44.7%
viability, T/C [13]: 72.8%
viability, T/C [14]: 88.6%
viability, T/C [15]: 84.1%
viability, T/C [16]: 80%
viability, T/C [17]: 58.8%
viability, T/C [18]: 39.7%
viability, T/C [19]: 89.5%
viability, T/C [20]: 78.7%
viability, T/C [21]: 73.5%
viability, T/C [22]: 63.6%
viability, T/C [23]: 54.1%
viability, T/C [24]: 32.3%
viability, T/C [25]: 36.6%
viability, T/C [26]: 47.1%
viability, T/C [27]: 33.7%
viability, T/C [28]: 22.4%
viability, T/C [29]: 22.2%
viability, T/C [30]: 15.9%
viability, T/C [31]: 32.6%
viability, T/C [32]: 22.6%
viability, T/C [33]: 27.6%
viability, T/C [34]: 15.1%
viability, T/C [35]: 16%
viability, T/C [36]: 12%

CC(C)(O)C1CCC(Nc2ccc3ncc(-c4cccc(C(F)(F)F)c4)n3n2)CC1 (centres undefined) + Cc1[nH]c2ccc(F)cc2c1-c1nc2c3cccnc3c3ncccc3c2[nH]1
IC50 (second compound 0.0316 µM): 1.5 µM
IC50 (second compound 0.1 µM): 1.33 µM
IC50 (second compound 0.316 µM): 1.06 µM
IC50 (second compound 1 µM): 0.874 µM
IC50 (second compound 3.16 µM): < 0.0316 µM
IC50 (second compound 10 µM): < 0.0316 µM
viability, T/C [1]: 82.8%
viability, T/C [2]: 97.5%
viability, T/C [3]: 87.3%
viability, T/C [4]: 59.9%
viability, T/C [5]: 30.1%
viability, T/C [6]: 33.9%
viability, T/C [7]: 96.7%
viability, T/C [8]: 94.5%
viability, T/C [9]: 84.8%
viability, T/C [10]: 55%
viability, T/C [11]: 35.1%
viability, T/C [12]: 32.4%
viability, T/C [13]: 96.7%
viability, T/C [14]: 87.2%
viability, T/C [15]: 87%
viability, T/C [16]: 51.2%
viability, T/C [17]: 30.3%
viability, T/C [18]: 32.7%
viability, T/C [19]: 86.7%
viability, T/C [20]: 68.2%
viability, T/C [21]: 82.4%
viability, T/C [22]: 46.1%
viability, T/C [23]: 29.7%
viability, T/C [24]: 24.6%
viability, T/C [25]: 35.1%
viability, T/C [26]: 28.4%
viability, T/C [27]: 23.2%
viability, T/C [28]: 12.9%
viability, T/C [29]: 8.53%
viability, T/C [30]: 10.5%
viability, T/C [31]: 26.7%
viability, T/C [32]: 27.6%
viability, T/C [33]: 18%
viability, T/C [34]: 12.3%
viability, T/C [35]: 7.51%
viability, T/C [36]: 7.22%
